Test system: SMN2-luciferase reporter
Assay: SMN2-luciferase reporter qHTS assay
Format: cell-based, human
Parameters: key to Curve Class: A curve class of 1.1 is a full agonist/antagonist; a curve class of 4 indicates the compound is inactive
Settings: for Curve Class: agonist/antagonist character of the concentration-response, lower values = more significant concentration-response; for Increased SMN2 activity: percent increase (or decrease) in SMN2 levels compared to control in which no test compound is added
Excerpt: A cell-based quantitative high throughput screening (qHTS) assay is used to identify compounds able to increase SMN production. The assay uses a SMN2-luciferase reporter to determine if exon 7 of the SMN gene is expressed, which correlates with increased full-length SMN production from the SMN2 gene. As controls, a homologue SMN1-luciferase reporter cell line looks for variations in expression of the SMN1 gene and a cell line with just the luciferase reporter looks at the capacity of the compounds to inhibit luciferase. In addition, increments in SMN production by lead compounds were confirmed by Western-Blot analysis using SMA patient fibroblasts.
For the qHTS assay, concentration-response profiles are generated at the primary-screen level for each library compound to minimize the number of false positives. A dilution series consisting of seven points separated by five-fold concentration differences is prepared for each compound, yielding a concentration series that spans a range of about four orders of magnitude, for example from a high concentration of 50 micromolar to a low concentration of 3.2 nanomolar and providing adequate data for fitting to a Hill equation. For the assay, the SMN2 reporter cell line was plated at a density of ˜2000 cells/well in complete media (phenol red free DMEM, 10% detacl calf serum, and 1× pen/strep), in 1536 well white solid bottom tissue culture treated plates (Greiner). Cells were allowed to adhere and recover at 37 C in 5% CO2 for 10-12 hours. Compounds were added to the plates by a Pintool (Kalypsys) at a volume of 23 nl/well. Cells were incubated in the presence of compounds for 2 days at 37 C in 5% CO2. In order to quantify luciferase reporter levels, 3 ul/well of OneGlo (Promega) was added to each well and incubated at room temperature for 10 minutes. Luminescence from the reporter in each well is measured using a Viewlux CCD based imager (Perkin Elmer) with an integration time of 30 seconds and a binning of 2× in luminescence mode. Sodium butyrate was used as the positive control compound for luciferase induction and a column of 32 wells of 9.2 mM compound on each plate was used to monitor assay performance.
The SMN reporters used herein are modified from those previously described (M. L. Zhang, C. L. Lorson, E. J. Androphy and J. Zhou, An in vivo reporter system for measuring increased inclusion of exon 7 in SMN2 mRNA: potential therapy of SMA, Gene Ther 8 (2001), pp. 1532-1538.)
The sequence of the SMN1 reporter vector used herein is given in SEQ ID NO.:1, while that of the SMN2 reporter vector is given in SEQ ID NO.:2.
Each of the SMN reporters is constructed from three separate DNA fragments: (1) an SMN promotor sequence from the transcriptional reporter p 4.0T (SMN1) or p3.4C (SMN2) described in Monani, et al. Biochimica et Biophysica Acta 1445 (1999) 330-336; (2) a modification of the firefly luciferase splicing reporter for SMN1 or SMN2 described by Zhang et al; and (3) a 744 bp SMN cDNA fragment.
The 3.7 kB SMN1 promoter fragment is obtained by restriction of p4.0T with BglII and SacII. A 3.4 kB SMN2 promoter fragment is obtained by restriction of p3.4C with KpnI and SacII; a 300 bp BglII/KpnI fragment from p4.0T is then added to the 3.4 kB SMN2 promoter fragment to yield the final 3.7 kB SMN2 promoter fragment.
The modified SMN1 and SMN2 firefly luciferase splicing reporters are obtained by removing 4 kB of intron 6 in the original reporter system by restriction with SmaI/Swa followed by religation of the reporter. A 4 kB luciferase splicing reporter is then obtaind by digestion with XhoI and NotI.
Ths SMN cDNA fragment is obtained by generating the productof a polymerase chain reaction (PCR) on a cDNA preparation using […] (SEQ ID NO:3) as the forward primer and Tatctcgagtggtccagaaggaaatggaggcagcc (SEQ ID NO:4) as the reverse primer. The PCR product is then digested with XhoI and SacII. […]

CNC(=O)C1CCN(c2nc(-c3ccc(Br)cc3)cs2)CC1 [Example 70, 1-(4-(4-Bromophenyl)Thiazol-2-yl)-N-Methylpiperidine-4-Carboxamide]
Curve Class: 2.1 | Increased SMN2 activity: 101.9%

CN(C)C(=O)C1CCN(c2nc(-c3ccc(Br)cc3)cs2)CC1 [Example 71, 1-(4-(4-Bromophenyl)Thiazol-2-yl)-N,N-Dimethylpiperidine-4-Carboxamide]
Curve Class: 2.4 | Increased SMN2 activity: 42.71%

O=C(Nc1ccccc1)C1CCN(c2nc(-c3ccc(Br)cc3)cs2)CC1 [Example 72, 1-(4-(4-Bromophenyl)Thiazol-2-yl)-N-Phenylpiperidine-4-Carboxamide]
Curve Class: 1.1 | Increased SMN2 activity: 262.4%

O=C(C1CCN(c2nc(-c3ccc(Br)cc3)cs2)CC1)N1CCOCC1 [Example 74, (1-(4-(4-Bromophenyl)Thiazol-2-yl)Piperidin-4-yl)(Morpholino)Methanone]
Curve Class: 2.2 | Increased SMN2 activity: 77.48%

O=C(NCCc1ccccc1)C1CCN(c2nc(-c3ccc(Br)cc3)cs2)CC1 [Example 77, 1-(4-(4-Bromophenyl)Thiazol-2-yl)-N-Phenethylpiperidine-4-Carboxamide]
Curve Class: 2.4 | Increased SMN2 activity: 31.29%

NC(=O)C1CCN(c2nccc(-c3ccc(Br)cc3)n2)CC1 [Example 80, 1-(4-(4-Bromophenyl)Pyrimidin-2-yl)Piperidine-4-Carboxamide]
Curve Class: 1.1 | Increased SMN2 activity: 387%

NC(=O)C1CCN(c2nc(-c3cccc(C(F)(F)F)c3)cs2)CC1 [Example 81, 1-(4-(3-(Trifluoromethyl)Phenyl)Thiazol-2-yl)Piperidine-4-Carboxamide]
Curve Class: 2.2 | Increased SMN2 activity: 100%

COc1ccc(-c2csc(N3CCC(C(N)=O)CC3)n2)cc1OC [Example 83, 1-(4-(3,4-Dimethoxyphenyl)Thiazol-2-yl)Piperidine-4-Carboxamide]
Curve Class: 2.4 | Increased SMN2 activity: 58.51%

COc1cc(-c2csc(N3CCC(C(N)=O)CC3)n2)cc(OC)c1OC [Example 84, 1-(4-(3,4,5-Trimethoxyphenyl)Thiazol-2-yl)Piperidine-4-Carboxamide]
Curve Class: 2.2 | Increased SMN2 activity: 73.33%

COc1cc(OC)cc(-c2csc(N3CCC(C(N)=O)CC3)n2)c1 [Example 85, 1-(4-(3,5-Dimethoxyphenyl)Thiazol-2-yl)Piperidine-4-Carboxamide]
Curve Class: 1.4 | Increased SMN2 activity: 44.77%

NC(=O)C1CCN(c2ncc(-c3ccc(Br)cc3)s2)CC1 [Example 87, 1-(5-(4-Bromophenyl)Thiazol-2-yl)Piperidine-4-Carboxamide]
Curve Class: 1.1 | Increased SMN2 activity: 598.7%

CN(C)c1cccc(-c2cnc(N3CCC(C(N)=O)CC3)s2)c1 [Example 88, 1-(5-(3-(Dimethylamino)Phenyl)Thiazol-2-yl)Piperidine-4-Carboxamide]
Curve Class: 1.1 | Increased SMN2 activity: 550.44%

CN(C)c1cccc(-c2cnc(N3CCC(C(N)=O)CC3)nc2)c1 [Example 89, 1-(5-(3-(Dimethylamino)Phenyl)Pyrimidin-2-yl)Piperidine-4-Carboxamide]
Curve Class: 1.1 | Increased SMN2 activity: 236.25%

CN(C)c1cccc(-c2ccnc(N3CCC(C(N)=O)CC3)n2)c1 [Example 90, 1-(4-(3-(Dimethylamino)Phenyl)Pyrimidin-2-yl)Piperidine-4-Carboxamide]
Curve Class: 1.1 | Increased SMN2 activity: 446.3%

CC(C)Oc1ccc(-c2csc(N3CCC(C(N)=O)CC3)n2)cc1 [Example 91, 1-(4-(4-Isopropoxyphenyl)Thiazol-2-yl)Piperidine-4-Carboxamide]
Curve Class: 1.1 | Increased SMN2 activity: 178.2%

NC(=O)C1CCN(c2nc(-c3ccc(Oc4ccccc4)cc3)cs2)CC1 [Example 92, 1-(4-(4-Phenoxyphenyl)Thiazol-2-yl)Piperidine-4-Carboxamide]
Curve Class: 1.1 | Increased SMN2 activity: 240%

NC(=O)C1CCN(c2nc(-c3ccc4c(c3)OCC4)cs2)CC1 [Example 93, 1-(4-(2,3-Dihydrobenzofuran-6-yl)Thiazol-2-yl)Piperidine-4-Carboxamide]
Curve Class: 2.1 | Increased SMN2 activity: 401.7%

NC(=O)C1CCN(c2nc(-c3ccc(OC(F)(F)F)cc3)cs2)CC1 [Example 95, 1-(4-(4-(Trifluoromethoxy)Phenyl)Thiazol-2-yl)Piperidine-4-Carboxamide]
Curve Class: 1.1 | Increased SMN2 activity: 296.8%

CCOc1ccc(-c2csc(N3CCC(C(N)=O)CC3)n2)cc1 [Example 96, 1-(4-(4-Ethoxyphenyl)Thiazol-2-yl)Piperidine-4-Carboxamide]
Curve Class: 1.1 | Increased SMN2 activity: 211.6%

CC(C)(C)c1ccc(-c2csc(N3CCC(C(N)=O)CC3)n2)cc1 [Example 98, 1-(4-(4-Tert-Butylphenyl)Thiazol-2-yl)Piperidine-4-Carboxamide]
Curve Class: 1.1 | Increased SMN2 activity: 243.3%

NC(=O)C1CCN(c2nc(-c3ccc4c(c3)OCCCO4)cs2)CC1 [Example 99, 1-(4-(3,4-Dihydro-2H-Benzo[B][1,4]Dioxepin-7-yl)Thiazol-2-yl)Piperidine-4-Carboxamide]
Curve Class: 1.1 | Increased SMN2 activity: 443.2%

CN(C)c1ccc(-c2csc(N3CCC(C(N)=O)CC3)n2)cc1 [Example 100, 1-(4-(4-(Dimethylamino)Phenyl)Thiazol-2-yl)Piperidine-4-Carboxamide]
Curve Class: 2.2 | Increased SMN2 activity: 64.26%

N#CC1CCN(c2nc(-c3ccc(Br)cc3)cs2)CC1 [Example 102, 1-(4-(4-Bromophenyl)Thiazol-2-yl)Piperidine-4-Carbonitrile]
Curve Class: 2.2 | Increased SMN2 activity: 77.87%

CN(C)c1cccc(-c2nccc(N3CCC(C(N)=O)CC3)n2)c1 [Example 104, 1-(2-(3-(Dimethylamino)Phenyl)Pyrimidin-4-yl)Piperidine-4-Carboxamide]
Curve Class: 2.1 | Increased SMN2 activity: 306.3%

CC(C)COc1ccc(-c2csc(N3CCC(C(N)=O)CC3)n2)cc1 [Example 106, 1-(4-(4-Isobutoxyphenyl)Thiazol-2-yl)Piperidine-4-Carboxamide]
Curve Class: 1.2 | Increased SMN2 activity: 54%

CC(C)Oc1cccc(-c2csc(N3CCC(C(N)=O)CC3)n2)c1 [Example 107, 1-(4(3-Isopropoxyphenyl)Thiazol-2-yl)Piperidine-4-Carboxamide]
Curve Class: 1.1 | Increased SMN2 activity: 605.6%

Brc1ccc(-c2csc(N3CCNCC3)n2)cc1 [Example 108, 4-(4-Bromophenyl)-2-(Piperazin-1-yl)Thiazole]
Curve Class: −2.1 | Increased SMN2 activity: −97.29%

CC(=O)N1CCN(c2nc(-c3ccc(Br)cc3)cs2)CC1 [Example 110, 1-(4-(4-(4-Bromophenyl)Thiazol-2-yl)Piperazin-1-yl)Ethanone]
Curve Class: 1.1 | Increased SMN2 activity: 234.5%

NC1CCN(c2nc(-c3ccc(Br)cc3)cs2)CC1 [Example 111, 1-(4-(4-Bromophenyl)Thiazol-2-yl)Piperidin-4-Amine]
Curve Class: 1.1 | Increased SMN2 activity: 182.6%

Brc1ccc(-c2csc(N3CCC(c4nnn[nH]4)CC3)n2)cc1 [Example 112, 2-(4-(1H-Tetrazol-5-yl)Piperidin-1-yl)-4-(4-Bromophenyl)Thiazole]
Curve Class: 2.1 | Increased SMN2 activity: 66.77%
